According to the Kinase Knowledgebase extract (Sharma et al. 2016):

Each compound was assayed against MAPK14 (UniProt Q16539) (assay: Inhibition of MAPK14 Kinase Activity).
Chain of MAPK14 (Q16539 whole entry, looked up): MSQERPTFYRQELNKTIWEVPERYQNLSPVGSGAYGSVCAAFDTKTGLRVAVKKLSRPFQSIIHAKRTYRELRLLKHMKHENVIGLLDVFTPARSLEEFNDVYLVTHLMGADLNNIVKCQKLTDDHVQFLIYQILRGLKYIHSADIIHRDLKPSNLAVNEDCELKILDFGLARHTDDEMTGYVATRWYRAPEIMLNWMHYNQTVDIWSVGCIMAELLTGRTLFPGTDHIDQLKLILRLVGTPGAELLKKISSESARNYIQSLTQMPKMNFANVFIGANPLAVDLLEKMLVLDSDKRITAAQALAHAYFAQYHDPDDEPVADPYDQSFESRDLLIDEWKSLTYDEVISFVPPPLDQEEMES

Compound | IC50 [µM]
CC(C)S(=O)(=O)n1c(N)nc2ccc(-c3nc(CNCCN4CCCCC4)[nH]c3-c3ccccc3)cc21 | ≤ 5
CC(C)S(=O)(=O)n1c(N)nc2ccc(-c3c(-c4ccc(F)cc4)ncn3C3CCNCC3)cc21 | ≤ 5
CC(C)n1cnc(-c2ccc(F)cc2)c1-c1ccc2nc(N)n(S(=O)(=O)C(C)C)c2c1 | ≤ 5
CC(C)S(=O)(=O)n1c(N)nc2ccc(-c3nc(-c4cccs4)[nH]c3-c3ccc(C(F)(F)F)cc3)cc21 | ≤ 5
CC(C)S(=O)(=O)n1c(N)nc2ccc(-c3nc(-c4c(Cl)cccc4Cl)[nH]c3-c3ccc(F)cc3)cc21 | ≤ 5
CC(C)S(=O)(=O)n1c(CCN)nc2ccc(-c3nc(-c4c(F)cccc4F)[nH]c3-c3ccccc3)cc21 | ≤ 5
CC(C)S(=O)(=O)n1c(N)nc2ccc(-c3c(-c4ccc(F)cc4)ncn3[C@H]3CC[C@H](O)CC3)cc21 | ≤ 5
Cc1ccc(-c2[nH]c(-c3ccc(F)cc3)nc2-c2ccc3nc(N)n(S(=O)(=O)C(C)C)c3c2)cc1 | ≤ 5
CC(C)S(=O)(=O)n1c(N)nc2ccc(-c3c(-c4ccc(F)cc4)ncn3CCN3CCOCC3)cc21 | ≤ 5
COc1ccc(Cn2cnc(-c3ccccc3)c2-c2ccc3ncn(S(=O)(=O)C(C)C)c3c2)cc1 | ≤ 5
CC(C)S(=O)(=O)n1c(N)nc2ccc(-c3c(-c4ccccc4)ncn3CCCN3CCOCC3)cc21 | ≤ 5
NCCc1nc2ccc(-c3nc(-c4c(F)cccc4F)[nH]c3-c3ccccc3)cc2[nH]1 | ≤ 5
CC(C)S(=O)(=O)n1c(N)nc2ccc(-c3c(-c4ccc(F)cc4)ncn3C3CCN(C)CC3)cc21 | ≤ 5
CC(C)S(=O)(=O)n1c(N)nc2ccc(-c3c(-c4ccc(F)cc4)ncn3C3CCN(C(=O)OC(C)(C)C)CC3)cc21 | ≤ 5
CC(C)S(=O)(=O)n1c(N)nc2ccc(-c3nc(C4CCN(CCO)CC4)[nH]c3-c3ccccc3)cc21 | ≤ 5
CC(C)S(=O)(=O)n1c(N)nc2ccc(-c3nc(-c4ccc(Cl)s4)[nH]c3-c3ccc(F)cc3)cc21 | ≤ 5
CC(C)S(=O)(=O)n1c(N)nc2ccc(-c3c(-c4ccccc4F)nc(-c4c[nH]nn4)n3C3CC3)cc21 | ≤ 5
CC(C)S(=O)(=O)n1c(N)nc2ccc(-c3nc(C4CCN(C(=O)OC(C)(C)C)CC4)[nH]c3-c3ccc(F)cc3)cc21 | ≤ 5
CC(C)S(=O)(=O)n1c(N)nc2ccc(-c3c(-c4ccc(F)cc4)ncn3C3CC3)cc21 | ≤ 5
CC(C)S(=O)(=O)n1c(N)nc2ccc(-c3c(-c4ccccc4)ncn3CCN3CCOCC3)cc21 | ≤ 5
CC(C)CN1CCC(c2nc(-c3ccc4nc(N)n(S(=O)(=O)C(C)C)c4c3)c(-c3ccc(F)cc3)[nH]2)CC1 | ≤ 5
Nc1nc2ccc(-c3nc(-c4cccs4)[nH]c3-c3ccccc3)cc2[nH]1 | ≤ 5
CC(C)S(=O)(=O)n1c(N)nc2ccc(-c3nc(-c4c(F)cc(OCCN5CCCC5)cc4F)[nH]c3-c3ccccc3)cc21 | ≤ 5

Results, then the compound that gave them:

IC50 [µM] | Compound
≤ 5 | CC(C)S(=O)(=O)n1c(N)nc2ccc(-c3nc(-c4ccc(OCCN(C)C)cc4)[nH]c3-c3ccccc3)cc21
≤ 5 | CCc1ccc(-c2nc(-c3ccc4nc(N)n(S(=O)(=O)C(C)C)c4c3)c(-c3ccccc3)[nH]2)s1
≤ 5 | Cc1nc(-c2ccc3nc(N)n(S(=O)(=O)C(C)C)c3c2)c(-c2ccccc2)[nH]1
≤ 5 | CC(C)S(=O)(=O)n1c(N)nc2ccc(-c3c(-c4ccccc4)ncn3[C@@H]3CCCC[C@H]3O)cc21
≤ 5 | COC(=O)CCn1cnc(-c2ccccc2)c1-c1ccc2nc(N)n(S(=O)(=O)C(C)C)c2c1
≤ 5 | CC(C)S(=O)(=O)n1c(N)nc2ccc(-c3c(-c4ccccc4)ncn3C3CCNCC3)cc21
≤ 5 | CC(C)S(=O)(=O)n1c(N)nc2ccc(-c3nc(-c4ccc(Cl)cc4F)[nH]c3-c3ccccc3)cc21
≤ 5 | CC(C)S(=O)(=O)n1c(N)nc2ccc(-c3c(-c4ccc(F)cc4)ncn3C3CCN(Cc4ccccc4)CC3)cc21
≤ 5 | CC(C)S(=O)(=O)n1c(N)nc2ccc(-c3c(-c4ccccc4)ncn3C3CCCC3)cc21
≤ 5 | CC(C)S(=O)(=O)n1c(N)nc2ccc(-c3cn[nH]c3-c3ccccc3)cc21
≤ 5 | CC(C)S(=O)(=O)n1c(N)nc2ccc(-c3sc(-c4ccccc4)nc3-c3ccccc3)cc21
≤ 5 | CC(C)S(=O)(=O)n1c(N)nc2ccc(-c3nc(-c4cccc(OCCN5CCCCC5)c4)[nH]c3-c3ccccc3)cc21
≤ 5 | CC(C)S(=O)(=O)n1c(N)nc2ccc(C3C(c4ccccc4)N=C4Sc5ccccc5N43)cc21 (stereo not drawn)
≤ 5 | CC(C)S(=O)(=O)n1c(N)nc2ccc(-c3c(C#N)cnn3-c3ccccc3)cc21
≤ 5 | CCn1cnc(-c2ccccc2)c1-c1ccc2nc(N)n(S(=O)(=O)C(C)C)c2c1
≤ 5 | CC(C)S(=O)(=O)n1c(N)nc2ccc(-c3nc(-c4cc(F)cc(F)c4)[nH]c3-c3ccccc3)cc21
≤ 5 | CC(C)S(=O)(=O)n1c(N)nc2ccc(-c3nc(-c4ccc(S(C)(=O)=O)cc4)[nH]c3-c3ccccc3)cc21
≤ 5 | CC(C)S(=O)(=O)n1c(N)nc2ccc(-c3nc(C4CCN(Cc5ccccc5)CC4)[nH]c3-c3ccccc3)cc21
≤ 5 | CC(C)S(=O)(=O)n1c(N)nc2ccc(-c3c(-c4ccccc4F)ncn3Cc3cccnc3)cc21
≤ 5 | CC(C)S(=O)(=O)n1c(N)nc2ccc(-c3[nH]n(-c4ccccc4)c(=O)c3-c3ccccc3)cc21
